One data set has as its target BktB β-ketothiolase (Cupriavidus necator, UniProt Q0KBP1). The experiment in a line: Thiolysis kinetics of purified BktB β-ketothiolase. Conditions: 25° C. As to the method: To enhance further our understanding of the kinetic characteristics of BktB β-ketothiolase, a thorough kinetic analysis of the enzyme's thiolysis activity was conducted using purified protein. The assay to determine the kinetic parameters Km and Vmax for βketobutyryl-CoA (C4), β-ketovaleryl-CoA (C5), and β-ketocaproyl-CoA (C6), was performed at 25° C. by the in situ generation of the β-keto compounds from their corresponding trans-2,3-enoyl-CoAs essentially as described by Haywood et al. (1988). Utilization of variable substrate concentrations permitted the determination of the descriptive kinetic parameters of the β-ketothiolase. Kinetic rates were determined only at fixed substrate concentrations in the Haywood et al. communication.
Purified BktB protein was prepared by growing E. coli […] transformed with pMON25754 in LB broth containing ampicillin (100μg/ml) overnight at 37° C. Cells were then harvested by centrifugation, and the pellet was resuspended in 50 mM KPi and 5% glycerol, sonicated, and the sonicate centrifuged to remove cellular debris. The cell extract was desalted using a PD-10 column (Pharmacia), and proteins resolved using a Pharmacia FPLC system and MonoQ anion-exchange column (Pharmacia). Buffer A was 10 mM Tris buffer, pH 7.8, plus 1 mM DTT; buffer B was buffer A plus 1 M KCl. The gradient was 0 to 10% B in 10 min, then to 35% B in 40 min. The flow rate was 1 ml/min, and the resolved proteins were collected at the rate of 1 ml/fraction. […] The enzyme was stored in 10 mM Tris-HCl, pH 7.8, 1 mM DTT, 50% glycerol at −20° C.
The C5 and C6 enoyl-CoAs were synthesized according to Schulz (1974) and purified using semi-prep C8-reverse-phase HPLC as described above for β-ketovaleryl-CoA. βketobutyryl-CoA (acetoacetyl-CoA) was purchased from Sigma (St. Louis, Mo.). The assay mixture (1 ml final volume) contained 150 mM EPPS, pH 8.0, 50 mM MgCl2, 1.5 mM pyruvate, 0.4 mM NAD+, and a coupling enzyme cocktail of three units crotonase, five units β-hydroxyacyl-CoA dehydrogenase, and 10 units lactic dehydrogenase. The enoyl-CoA was added to this mixture and the absorbance at 304 nm was monitored until it reached a plateau (typically about 5 min). CoA was added to this mixture, followed by BktB β-ketothiolase to initiate the reaction. The decrease in absorbance at 304 nm due to the thiolysis of the β-ketoacyl-CoA was utilized as a direct measure of activity. Extinction coefficients to convert absorbance units to μmol of product were 19.5, 12.2, and 14.0 cm^−1 mM^−1 for β-ketobutyryl-CoA, β-ketovaleryl-CoA, and β-ketocaproyl-CoA, respectively. β-ketoacyl-CoA concentration was varied from […] (CoA was fixed at 200 μM), and CoA concentration was varied from 20 to 400 μM (β-ketocaproyl-CoA was fixed at 60 μM) for determining kinetic parameters for β-ketoacyl-CoA and CoA, respectively. Reaction rates were calculated in the steady-state within the first minute following initiation. All data were fitted to the normal Michaelis-Menten equation using a non-linear regression analysis.

For data set [1], the system named is A. eutrophus PhbA and BktB β-ketothiolases. The experiment in a line: β-Ketothiolase condensation assay with 1-14C-acetyl-CoA (PhbA, BktB). The conditions noted are these: 0.30 mM acetyl-CoA. It counts as biochemical. The text has this:
As noted above, A. eutrophus can produce P(3HB-co-3HV) copolymer when provided with an appropriate C5 precursor. […] One of these β-ketothiolases, designated BktB herein, was encoded on plasmid pBK6. A. eutrophus BktB was obtained from E. coli DH5α transformed with plasmid pMON25754. pMON25754 was produced from the A. eutrophus pBK6 clone (Slater et al., 1988) by deleting a 5.0 kb XhoI fragment (there is an additional XhoI site approximately 5.0 kb 5′ to the XhoI site shown in FIG. 1 of Slater et al.). The pBK6 clone was produced by Slater et al. (1988) from A. eutrophus H16, i.e., ATCC accession number 17699, which is publicly available from the American Type Culture Collection, 12301 Parklawn Drive, Rockville, Md. 20852. BktB was overexpressed from its native promoter on the high copy plasmid pMON25754 by growing the cells overnight at 37° C. to stationary phase in LB broth containing ampicillin (100 μg/ml). A. eutrophus PhbA was obtained from E. coli DH5α transformed with pMON25636 (FIG. 20) by growing the cells at 37° C. in LB broth containing ampicillin (100 μg/ml) to early log phase and then inducing with IPTG. Cells were harvested after two hours of further growth.
The activity of β-ketothiolases can be assayed in both the condensation and thiolysis directions. However, condensation activity for products that are the result of a mixed condensation of acetyl-CoA and a longer chain acyl-CoA are difficult to measure. This is due to the difficulty in distinguishing between acetoacetyl-CoA, the product of condensing two acetyl-CoA molecules, and the mixed condensation reaction product, both of which form simultaneously. To date, condensation assays have been spectrophotometrically-based, but these are valid only when there is a single acyl-CoA substrate present (i.e., acetyl-CoA) since they cannot discriminate between the products formed. The assay described below represents the first reported assay that permits complete quantitation of all condensation products regardless of the nature of starting substrates.
β-ketothiolase assays designed to measure the condensation activity with acetyl-CoA plus either propionyl-CoA or butyryl-CoA were performed using 1-^14C-labelled acetyl-CoA. Since the equilibrium for the reaction lies heavily toward the starting acyl-CoAs rather than the condensed β-ketoacyl-CoA product, the latter was “pulled” to the corresponding β-hydroxyacyl-CoA using NADH and β-ketoacyl-CoA dehydrogenase. In addition, to avoid the strong feedback inhibition of β-ketothiolase by free CoA, each assay solution contained 5,5′-dithio-bis(2-nitrobenzoic acid) (DTNB) to trap chemically the free CoA produced by the reaction.
The condensation assay mixture (0.5 ml final volume) contained 100 mM KPi, pH 7.8, 0.5 mM NADH, 0.30 mM 1-^14C-acetyl-CoA (0.15 μCi), 5 units β-ketoacyl-CoA dehydrogenase, 0.5 mM DTNB, and variable propionyl- or butyryl-CoA as indicated in Table 5. The reaction was initiated by the addition of β-ketothiolase. Following 20 minutes at 30° C., each reaction mixture was quenched by the addition of 25 μl of 10% formic acid. Thirty μl of 25% H2SO4 were added to 200 μl of quenched reaction mix; this mixture was then incubated at 70° C. for 24 hours to hydrolyze all CoA thioesters to their free acids. Sixty μl of 5 M sodium formate were added to the sample to neutralize the pH, followed by analysis of a 130 μl aliquot using C18-reverse-phase HPLC (0.5×25 cm column). Detection and quantitation were carried out by monitoring flow-through with a Radiomatic flow detector. A gradient elution was employed using aqueous 1% acetic acid (solvent A) and acetonitrile (solvent B). […]

Chain of BktB β-ketothiolase (Q0KBP1 2-394 limits assumed): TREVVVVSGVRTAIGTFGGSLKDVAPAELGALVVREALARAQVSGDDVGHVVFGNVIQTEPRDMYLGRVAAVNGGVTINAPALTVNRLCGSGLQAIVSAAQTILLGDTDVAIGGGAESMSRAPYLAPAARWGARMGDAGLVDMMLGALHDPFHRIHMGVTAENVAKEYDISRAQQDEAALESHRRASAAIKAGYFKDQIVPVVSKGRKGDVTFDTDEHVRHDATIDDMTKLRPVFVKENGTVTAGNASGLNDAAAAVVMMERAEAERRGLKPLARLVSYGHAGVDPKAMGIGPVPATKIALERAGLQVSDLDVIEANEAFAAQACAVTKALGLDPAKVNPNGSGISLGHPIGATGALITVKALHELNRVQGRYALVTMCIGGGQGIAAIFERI

For `CCCC(=O)CC(=O)SCCNC(=O)CCNC(=O)[C@H](O)C(C)(C)COP(=O)(O)OP(=O)(O)OC[C@H]1O[C@@H](n2cnc3c(N)ncnc32)[C@H](O)[C@@H]1OP(=O)(O)O` [B-ketocaproyl-CoA], on BktB β-ketothiolase (CoA fixed at 200 μM), the Km is 6 ± 0.7 µM and the Vmax turned out to be 103 ± 3 u/mg.
For the molecule `CC(C)(COP(=O)(O)OP(=O)(O)OC[C@H]1O[C@@H](n2cnc3c(N)ncnc32)[C@H](O)[C@@H]1OP(=O)(O)O)[C@@H](O)C(=O)NCCC(=O)NCCS` [CoA, coenzyme A], at BktB β-ketothiolase (β-ketocaproyl-CoA fixed at 60 μM), the Vmax is 98 ± 3 u/mg.
Regarding `CCC(=O)CC(=O)SCCNC(=O)CCNC(=O)[C@H](O)C(C)(C)COP(=O)(O)OP(=O)(O)OC[C@H]1O[C@@H](n2cnc3c(N)ncnc32)[C@H](O)[C@@H]1OP(=O)(O)O` [B-ketovaleryl-CoA], at BktB β-ketothiolase (CoA fixed at 200 μM), the Km stood at 15 ± 1 µM and the Vmax is on record as 236 ± 8 u/mg.
The corresponding values for `CC(=O)CC(=O)SCCNC(=O)CCNC(=O)[C@H](O)C(C)(C)COP(=O)(O)OP(=O)(O)OC[C@H]1O[C@@H](n2cnc3c(N)ncnc32)[C@H](O)[C@@H]1OP(=O)(O)O` [B-ketobutyryl-CoA] are 37 ± 3 µM and 122 ± 5 u/mg.

B1: PhbA: A. eutrophus PhbA β-ketothiolase obtained from E. coli DH5α transformed with pMON25636 (protein, UniProt P14611 1-393, looked up)
Acetyl-CoA acetyltransferase: MTDVVIVSAARTAVGKFGGSLAKIPAPELGAVVIKAALERAGVKPEQVSEVIMGQVLTAGSGQNPARQAAIKAGLPAMVPAMTINKVCGSGLKAVMLAANAIMAGDAEIVVAGGQENMSAAPHVLPGSRDGFRMGDAKLVDTMIVDGLWDVYNQYHMGITAENVAKEYGITREAQDEFAVGSQNKAEAAQKAGKFDEEIVPVLIPQRKGDPVAFKTDEFVRQGATLDSMSGLKPAFDKAGTVTAANASGLNDGAAAVVVMSAAKAKELGLTPLATIKSYANAGVDPKVMGMGPVPASKRALSRAEWTPQDLDLMEINEAFAAQALAVHQQMGWDTSKVNVNGGAIAIGHPIGASGCRILVTLLHEMKRRDAKKGLASLCIGGGMGVALAVERK
modifications: expressed in E. coli
notes: A. eutrophus PhbA β-ketothiolase obtained from E. coli DH5α transformed with pMON25636
On to B1, for which the “% Turnover C4 Product” value in data set [1] (propionyl-CoA 0 mM) came out at 16.9%; in data set [1] (propionyl-CoA 0.6 mM), 13.5%; in data set [1] (propionyl-CoA 1.2 mM), 10.3%; in data set [1] (propionyl-CoA 2.4 mM), 7.0%. In addition, the “% Turnover C5 Product” value in data set [1] (propionyl-CoA 0.6 mM), in data set [1] (propionyl-CoA 1.2 mM) and in data set [1] (propionyl-CoA 2.4 mM) was 0% throughout.

Broadly, the Km is the substrate concentration at which the rate is half of its maximum.

For the origin of these results see US6946588B2, “Nucleic acid encoding a modified threonine deaminase and methods of use” (Monsanto Technology LLC, priority 1996, dated 2005).
